Here are results for two compounds from patent US20090215708A1, “Treatment of Sexual Dysfunction with Proton Pump Agonists” (priority 2008, published 2009).

Each structure is given as a SMILES string.

The subject of data set [1] is subject with sexual dysfunction related to penis size below the 10th percentile. Nature of the data set: Daily oral cinchomeronic acid in a subject with penis size below the 10th percentile. It counts as in vivo, human. From the text:
A subject who has reported long-term sexual dysfunction related to a penis size below the 10th percentile is given an oral formulation of cinchomeronic acid, at a daily dose sufficient to maintain therapeutic blood levels of the agent.

In data set [2] the test system is proton pump (plasma membrane H+ ATPases). To be noted: plants; cited from earlier work.
Data set [3] relates to subject diagnosed with Female Sexual Arousal Disorder (FSAD). Nature of the data set: Daily oral fusicoccin in a subject with Female Sexual Arousal Disorder. It counts as in vivo, human. The conditions noted are these: daily oral formulation. From the text: A subject who has been diagnosed with Female Sexual Arousal Disorder (FSAD) for over 6 months is given a daily oral formulation of fusicoccin, at a dose sufficient to maintain therapeutic blood levels of the agent. […] The use of this preparation is well accepted by both the subject and partner.

For the compound `O=C(O)c1ccncc1C(=O)O` [cinchomeronic acid, 3,4-dicarboxypyridine], the adverse side effects entry in data set [1] is reported as “no adverse side effects”. Further, in data set [1] (two months after beginning treatment), the “penile circumference and length compared to before treatment” value was “measurable increase”.
As to `C=CC(C)(C)OC[C@H]1O[C@H](O[C@@H]2C3=C([C@H](C)COC(C)=O)C[C@H](O)[C@]3(C)/C=C3/[C@@H](COC)CC[C@H]3[C@@H](C)[C@H]2O)[C@H](O)[C@@H](OC(C)=O)[C@@H]1O` [fusicoccin], the “proton pumping across the plasma membrane” value in data set [2] is “activate”. Further, in data set [3], the adverse side effects entry is listed as “without adverse side effects”. For the same compound, the “symptoms, including lubrication-swelling response during sexual activity” value in data set [3] (one week after beginning treatment) is recorded as “significant improvement in symptoms”.
